# Data: PubChem BioAssay (NCI)
#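 Assay format: 96-well plates, 48-hour exposure. GI50 is the concentration that inhibits growth by half. TGI denotes the concentration required for complete inhibition of growth.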
# Experiments:
# Test in all cases: NCI-60 cell line screen, 48 h
# SK-MEL-28 melanoma = system: SK-MEL-28 melanoma
# EKVX NSCLC = system: EKVX NSCLC
# T-47D breast = system: T-47D breast
# MALME-3M melanoma = system: MALME-3M melanoma
# RPMI-8226 leukemia = system: RPMI-8226 leukemia
# K-562 leukemia = system: K-562 leukemia
# NCI-H522 lung = system: NCI-H522 lung
# UO-31 renal = system: UO-31 renal
# KM12 colon = system: KM12 colon
# HS 578T breast = system: HS 578T breast
# CAKI-1 renal = system: CAKI-1 renal
# HL-60(TB) leukemia = system: HL-60(TB) leukemia
# UACC-62 melanoma = system: UACC-62 melanoma
# IGROV1 ovarian = system: IGROV1 ovarian
# SNB-19 CNS = system: SNB-19 CNS
# HT29 colon = system: HT29 colon
# HCC-2998 colon = system: HCC-2998 colon
# DU-145 prostate = system: DU-145 prostate
# OVCAR-8 ovarian = system: OVCAR-8 ovarian
# OVCAR-5 ovarian = system: OVCAR-5 ovarian
# M14 melanoma = system: M14 melanoma
# NCI/ADR-RES ovarian = system: NCI/ADR-RES ovarian
# RXF 393 renal = system: RXF 393 renal
# CCRF-CEM leukemia = system: CCRF-CEM leukemia
# U251 CNS = system: U251 CNS
# HOP-92 NSCLC = system: HOP-92 NSCLC
# A549 NSCLC = system: A549 NSCLC
# SW-620 colon = system: SW-620 colon
# MDA-MB-435 = system: MDA-MB-435
# SK-MEL-5 melanoma = system: SK-MEL-5 melanoma
# ACHN renal = system: ACHN renal
# TK-10 renal = system: TK-10 renal
# MDA-MB-231 breast = system: MDA-MB-231 breast
# SF-268 CNS = system: SF-268 CNS
# SR leukemia = system: SR leukemia
# HCT-116 colon = system: HCT-116 colon
# UACC-257 melanoma = system: UACC-257 melanoma
# 786-0 renal = system: 786-0 renal
# BT-549 breast = system: BT-549 breast
# SF-539 CNS = system: SF-539 CNS
# HOP-62 NSCLC = system: HOP-62 NSCLC
# MCF7 breast = system: MCF7 breast
# MOLT-4 leukemia = system: MOLT-4 leukemia
# SN12C renal = system: SN12C renal
# NCI-H460 lung = system: NCI-H460 lung
# A498 renal = system: A498 renal
# NCI-H23 lung = system: NCI-H23 lung
# SK-MEL-2 melanoma = system: SK-MEL-2 melanoma
# LOX IMVI melanoma = system: LOX IMVI melanoma
# SK-OV-3 ovarian = system: SK-OV-3 ovarian
# HCT-15 colon = system: HCT-15 colon
# NCI-H226 lung = system: NCI-H226 lung
# COLO 205 colon = system: COLO 205 colon
# SF-295 CNS = system: SF-295 CNS
# SNB-75 CNS = system: SNB-75 CNS
# OVCAR-4 ovarian = system: OVCAR-4 ovarian
# PC-3 prostate = system: PC-3 prostate
smiles,measurement,setting,value
Oc1ccc(CSc2nnc(-c3cnccn3)o2)c2cccnc12,GI50,SK-MEL-28 melanoma,711 nM
same,TGI,SK-MEL-28 melanoma,> 100000 nM
same,GI50,EKVX NSCLC,505 nM
same,TGI,EKVX NSCLC,> 100000 nM
same,GI50,T-47D breast,379 nM
same,TGI,T-47D breast,> 100000 nM
same,GI50,MALME-3M melanoma,283 nM
same,TGI,MALME-3M melanoma,2190 nM
same,GI50,RPMI-8226 leukemia,395 nM
same,TGI,RPMI-8226 leukemia,> 100000 nM
same,GI50,K-562 leukemia,363 nM
same,TGI,K-562 leukemia,> 100000 nM
same,GI50,NCI-H522 lung,415 nM
same,TGI,NCI-H522 lung,> 100000 nM
same,GI50,UO-31 renal,426 nM
same,TGI,UO-31 renal,> 32200 nM
same,GI50,KM12 colon,638 nM
same,TGI,KM12 colon,> 100000 nM
same,GI50,HS 578T breast,340 nM
same,TGI,HS 578T breast,> 100000 nM
same,GI50,CAKI-1 renal,605 nM
same,TGI,CAKI-1 renal,> 100000 nM
same,GI50,HL-60(TB) leukemia,410 nM
same,GI50,UACC-62 melanoma,517 nM
same,TGI,UACC-62 melanoma,15700 nM
same,GI50,IGROV1 ovarian,812 nM
same,TGI,IGROV1 ovarian,> 100000 nM
same,GI50,SNB-19 CNS,390 nM
same,TGI,SNB-19 CNS,> 100000 nM
same,GI50,HT29 colon,4000 nM
same,TGI,HT29 colon,> 100000 nM
same,GI50,HCC-2998 colon,697 nM
same,TGI,HCC-2998 colon,> 100000 nM
same,GI50,DU-145 prostate,472 nM
same,TGI,DU-145 prostate,> 100000 nM
same,GI50,OVCAR-8 ovarian,381 nM
same,TGI,OVCAR-8 ovarian,> 100000 nM
same,GI50,OVCAR-5 ovarian,1420 nM
same,TGI,OVCAR-5 ovarian,> 100000 nM
same,GI50,M14 melanoma,475 nM
same,TGI,M14 melanoma,> 85200 nM
same,GI50,NCI/ADR-RES ovarian,1890 nM
same,TGI,NCI/ADR-RES ovarian,> 100000 nM
same,GI50,RXF 393 renal,522 nM
same,TGI,RXF 393 renal,> 41000 nM
same,GI50,CCRF-CEM leukemia,536 nM
same,TGI,CCRF-CEM leukemia,> 100000 nM
same,GI50,U251 CNS,370 nM
same,TGI,U251 CNS,> 100000 nM
same,GI50,HOP-92 NSCLC,202 nM
same,TGI,HOP-92 NSCLC,592 nM
same,GI50,A549 NSCLC,404 nM
same,TGI,A549 NSCLC,> 100000 nM
same,GI50,SW-620 colon,445 nM
same,TGI,SW-620 colon,> 100000 nM
same,GI50,MDA-MB-435,359 nM
same,TGI,MDA-MB-435,> 100000 nM
same,GI50,SK-MEL-5 melanoma,229 nM
same,TGI,SK-MEL-5 melanoma,530 nM
same,GI50,ACHN renal,432 nM
same,TGI,ACHN renal,> 100000 nM
same,GI50,TK-10 renal,3070 nM
same,TGI,TK-10 renal,> 100000 nM
same,GI50,MDA-MB-231 breast,840 nM
same,TGI,MDA-MB-231 breast,> 100000 nM
same,GI50,SF-268 CNS,453 nM
same,TGI,SF-268 CNS,> 100000 nM
same,GI50,SR leukemia,395 nM
same,TGI,SR leukemia,> 100000 nM
same,GI50,HCT-116 colon,334 nM
same,TGI,HCT-116 colon,> 100000 nM
same,GI50,UACC-257 melanoma,407 nM
same,TGI,UACC-257 melanoma,4720 nM
same,GI50,786-0 renal,590 nM
same,TGI,786-0 renal,> 100000 nM
same,GI50,BT-549 breast,283 nM
same,TGI,BT-549 breast,8560 nM
same,GI50,SF-539 CNS,419 nM
same,TGI,SF-539 CNS,> 100000 nM
same,GI50,HOP-62 NSCLC,449 nM
same,TGI,HOP-62 NSCLC,> 100000 nM
same,GI50,MCF7 breast,305 nM
same,GI50,MOLT-4 leukemia,488 nM
same,TGI,MOLT-4 leukemia,> 100000 nM
same,GI50,SN12C renal,317 nM
same,TGI,SN12C renal,> 100000 nM
same,GI50,NCI-H460 lung,336 nM
same,TGI,NCI-H460 lung,> 100000 nM
same,GI50,A498 renal,2220 nM
same,TGI,A498 renal,7220 nM
same,GI50,NCI-H23 lung,371 nM
same,TGI,NCI-H23 lung,> 100000 nM
same,GI50,SK-MEL-2 melanoma,314 nM
same,TGI,SK-MEL-2 melanoma,998 nM
same,GI50,LOX IMVI melanoma,383 nM
same,TGI,LOX IMVI melanoma,> 100000 nM
same,GI50,SK-OV-3 ovarian,700 nM
same,TGI,SK-OV-3 ovarian,> 23700 nM
same,GI50,HCT-15 colon,385 nM
same,TGI,HCT-15 colon,> 100000 nM
same,GI50,NCI-H226 lung,1750 nM
same,TGI,NCI-H226 lung,> 29600 nM
same,GI50,COLO 205 colon,3220 nM
same,TGI,COLO 205 colon,11100 nM
same,GI50,SF-295 CNS,364 nM
same,TGI,SF-295 CNS,> 100000 nM
same,GI50,SNB-75 CNS,332 nM
same,TGI,SNB-75 CNS,> 100000 nM
same,GI50,OVCAR-4 ovarian,643 nM
same,TGI,OVCAR-4 ovarian,> 100000 nM
same,GI50,PC-3 prostate,335 nM
same,TGI,PC-3 prostate,> 100000 nM
